In the kinase profiling compilation of Christmann-Franck et al. (2016):
“And” between values parts separate entries of the source, which are not always exact repeats. Identical values can stand only once.

What was measured:
Assay in all cases: radiometric filter-binding kinase assay, Kinaseprofiler
[1] = test system: AKT1 (human), P31749 [S478G]; settings: compound 1.0 µM; ATP 155 µM
[2] = test system: AURKA (human), O14965 [I31F]; settings: compound 1.0 µM; ATP 15 µM
[3] = test system: BLK (human), P51451 [M278V]; settings: compound 1.0 µM; ATP 45 µM
[4] = test system: BRSK2 (human), Q8IWQ3 [S251I]; settings: compound 1.0 µM; ATP 70 µM
BTK (human) = BTK (human) (UniProt Q06187); settings: compound 1.0 µM; ATP 200 µM
CAMK4 (human) = CAMK4 (human) (UniProt Q16566); settings: compound 1.0 µM; ATP 10 µM
CDC42BPA (human) = CDC42BPA (human) (UniProt Q5VT25); settings: compound 1.0 µM; ATP 45 µM
CHEK1 (human) = CHEK1 (human) (UniProt O14757); settings: compound 1.0 µM; ATP 90 µM
[5] = test system: EGFR (human), P00533 [L861Q]; settings: compound 1.0 µM; ATP 10 µM
EPHA2 (human) = EPHA2 (human) (UniProt P29317); settings: compound 1.0 µM; ATP 155 µM
EPHA5 (human) = EPHA5 (human) (UniProt P54756); settings: compound 1.0 µM; ATP 10 µM
FER (human) = FER (human) (UniProt P16591); settings: compound 1.0 µM; ATP 70 µM
FES (human) = FES (human) (UniProt P07332); settings: compound 1.0 µM; ATP 45 µM
FLT3 (human) = FLT3 (human) (UniProt P36888); settings: compound 1.0 µM; ATP 200 µM
IGF1R (human) = IGF1R (human) (UniProt P08069); settings: compound 1.0 µM; ATP 200 µM
IRAK1 (human) = IRAK1 (human) (UniProt P51617); settings: compound 1.0 µM; ATP 45 µM
[6] = test system: KIT (human), P10721 [D816V]; settings: compound 1.0 µM; ATP 200 µM
MAP2K4 (mouse) = settings: compound 1.0 µM; accession and sequence are those of the human protein
MAP2K6 (human) = MAP2K6 (human) (UniProt P52564); settings: compound 1.0 µM; ATP 10 µM
MAPK10 (human) = MAPK10 (human) (UniProt P53779); settings: compound 1.0 µM; ATP 10 µM
NLK (human) = NLK (human) (UniProt Q9UBE8); settings: compound 1.0 µM; ATP 200 µM
PAK6 (human) = PAK6 (human) (UniProt Q9NQU5); settings: compound 1.0 µM; ATP 10 µM
PASK (human) = PASK (human) (UniProt Q96RG2); settings: compound 1.0 µM; ATP 15 µM
PIM1 (human) = PIM1 (human) (UniProt P11309); settings: compound 1.0 µM; ATP 90 µM
PRKCA (human) = PRKCA (human) (UniProt P17252); settings: compound 1.0 µM; ATP 45 µM
PRKCD (human) = PRKCD (human) (UniProt Q05655); settings: compound 1.0 µM; ATP 15 µM
PRKCE (human) = PRKCE (human) (UniProt Q02156); settings: compound 1.0 µM; ATP 45 µM
[7] = test system: PRKCH (human), P24723 [V108L/G109R/L392Q]; settings: compound 1.0 µM; ATP 45 µM
PRKCQ (human) = PRKCQ (human) (UniProt Q04759); settings: compound 1.0 µM; ATP 15 µM
PRKG1 (human) = PRKG1 (human) (UniProt Q13976); settings: compound 1.0 µM; ATP 90 µM
PRKX (human) = PRKX (human) (UniProt P51817); settings: compound 1.0 µM; ATP 200 µM
RPS6KA2 KD1 KD2 (human) = RPS6KA2 KD1 KD2 (human) (UniProt Q15349); settings: compound 1.0 µM; ATP 10 µM
RPS6KA3 KD1 KD2 (human) = RPS6KA3 KD1 KD2 (human) (UniProt P51812); settings: compound 1.0 µM; ATP 10 µM
RPS6KA4 KD1 KD2 (human) = RPS6KA4 KD1 KD2 (human) (UniProt O75676); settings: compound 1.0 µM; ATP 45 µM
[8] = test system: RPS6KB1 (human), P23443 [T412E]; settings: compound 1.0 µM; ATP 15 µM
SGK3 (human) = SGK3 (human) (UniProt Q96BR1); settings: compound 1.0 µM; ATP 155 µM
STK33 (human) = STK33 (human) (UniProt Q9BYT3); settings: compound 1.0 µM; ATP 155 µM
WNK3 (human) = WNK3 (human) (UniProt Q9BYP7); settings: compound 1.0 µM; ATP 200 µM
ZAP70 (human) = ZAP70 (human) (UniProt P43403); settings: compound 1.0 µM; ATP 15 µM

Sequence of PRKG1 (human) (Q13976 whole entry, looked up): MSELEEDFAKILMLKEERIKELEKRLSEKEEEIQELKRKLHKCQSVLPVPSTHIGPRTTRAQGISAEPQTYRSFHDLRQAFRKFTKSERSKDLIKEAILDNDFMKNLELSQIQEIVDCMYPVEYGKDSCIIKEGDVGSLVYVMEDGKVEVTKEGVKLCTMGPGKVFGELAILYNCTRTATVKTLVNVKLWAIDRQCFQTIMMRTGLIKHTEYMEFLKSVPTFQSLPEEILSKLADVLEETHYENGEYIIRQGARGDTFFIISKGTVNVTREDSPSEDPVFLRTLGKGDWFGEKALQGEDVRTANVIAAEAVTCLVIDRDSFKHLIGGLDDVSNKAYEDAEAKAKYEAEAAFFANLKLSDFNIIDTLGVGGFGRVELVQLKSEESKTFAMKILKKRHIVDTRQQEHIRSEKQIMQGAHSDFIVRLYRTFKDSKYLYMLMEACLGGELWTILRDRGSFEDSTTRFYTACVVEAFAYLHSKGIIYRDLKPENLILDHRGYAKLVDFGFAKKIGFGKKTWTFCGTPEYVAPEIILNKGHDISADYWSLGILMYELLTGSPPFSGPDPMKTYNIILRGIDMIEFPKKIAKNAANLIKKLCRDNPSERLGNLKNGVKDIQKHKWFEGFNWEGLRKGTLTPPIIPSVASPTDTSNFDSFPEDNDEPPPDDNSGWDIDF
Sequence of IGF1R (human) (P08069 whole entry, looked up): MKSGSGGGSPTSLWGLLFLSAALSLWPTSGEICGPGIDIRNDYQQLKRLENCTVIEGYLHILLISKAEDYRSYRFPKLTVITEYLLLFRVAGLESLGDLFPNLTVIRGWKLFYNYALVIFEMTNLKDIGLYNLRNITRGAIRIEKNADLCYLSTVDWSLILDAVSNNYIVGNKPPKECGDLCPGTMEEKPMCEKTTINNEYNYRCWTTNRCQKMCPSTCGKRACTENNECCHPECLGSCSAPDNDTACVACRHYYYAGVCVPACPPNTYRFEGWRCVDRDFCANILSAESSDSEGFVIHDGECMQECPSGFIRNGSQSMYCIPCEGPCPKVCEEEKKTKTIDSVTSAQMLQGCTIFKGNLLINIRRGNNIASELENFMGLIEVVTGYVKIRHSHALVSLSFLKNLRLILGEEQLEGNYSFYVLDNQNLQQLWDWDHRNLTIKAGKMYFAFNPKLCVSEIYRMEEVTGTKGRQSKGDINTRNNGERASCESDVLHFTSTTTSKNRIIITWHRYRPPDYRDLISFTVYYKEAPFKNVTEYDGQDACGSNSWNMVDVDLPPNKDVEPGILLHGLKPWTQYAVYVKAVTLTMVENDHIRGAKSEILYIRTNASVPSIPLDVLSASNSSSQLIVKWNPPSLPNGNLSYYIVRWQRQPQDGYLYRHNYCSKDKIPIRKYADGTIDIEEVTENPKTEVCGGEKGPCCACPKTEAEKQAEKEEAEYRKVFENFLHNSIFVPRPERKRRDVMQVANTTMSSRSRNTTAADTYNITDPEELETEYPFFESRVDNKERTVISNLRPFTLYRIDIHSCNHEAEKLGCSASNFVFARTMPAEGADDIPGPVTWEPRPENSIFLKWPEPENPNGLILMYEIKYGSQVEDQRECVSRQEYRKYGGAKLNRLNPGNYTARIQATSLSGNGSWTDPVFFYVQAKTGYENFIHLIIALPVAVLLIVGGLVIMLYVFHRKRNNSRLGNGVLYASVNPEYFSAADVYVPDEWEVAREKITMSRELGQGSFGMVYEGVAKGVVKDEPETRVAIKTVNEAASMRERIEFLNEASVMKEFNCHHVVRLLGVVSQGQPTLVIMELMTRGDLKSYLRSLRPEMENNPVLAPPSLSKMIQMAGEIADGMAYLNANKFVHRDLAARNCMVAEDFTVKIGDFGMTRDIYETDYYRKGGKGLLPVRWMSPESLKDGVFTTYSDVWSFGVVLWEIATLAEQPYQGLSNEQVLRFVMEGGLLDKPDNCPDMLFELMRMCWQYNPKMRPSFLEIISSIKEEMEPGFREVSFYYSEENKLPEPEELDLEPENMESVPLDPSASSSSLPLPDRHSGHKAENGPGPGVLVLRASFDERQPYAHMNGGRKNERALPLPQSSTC
Sequence of RPS6KB1 (human), P23443 [T412E] (P23443 whole entry T412E, looked up): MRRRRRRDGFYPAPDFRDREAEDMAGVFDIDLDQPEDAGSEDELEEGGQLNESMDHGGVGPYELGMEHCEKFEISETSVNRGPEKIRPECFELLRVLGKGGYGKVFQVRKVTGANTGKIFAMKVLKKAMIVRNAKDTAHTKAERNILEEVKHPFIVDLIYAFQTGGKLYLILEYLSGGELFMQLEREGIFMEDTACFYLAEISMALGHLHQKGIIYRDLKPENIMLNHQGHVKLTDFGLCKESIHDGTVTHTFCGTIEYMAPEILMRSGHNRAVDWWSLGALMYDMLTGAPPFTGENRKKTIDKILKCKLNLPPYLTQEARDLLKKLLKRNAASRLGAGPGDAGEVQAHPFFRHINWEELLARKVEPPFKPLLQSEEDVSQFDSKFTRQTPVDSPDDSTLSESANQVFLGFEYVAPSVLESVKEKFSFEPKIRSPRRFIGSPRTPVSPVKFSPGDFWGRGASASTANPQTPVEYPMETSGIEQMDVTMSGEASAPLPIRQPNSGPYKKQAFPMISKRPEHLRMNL
Sequence of RPS6KA2 KD1 KD2 (human) (Q15349 whole entry, looked up): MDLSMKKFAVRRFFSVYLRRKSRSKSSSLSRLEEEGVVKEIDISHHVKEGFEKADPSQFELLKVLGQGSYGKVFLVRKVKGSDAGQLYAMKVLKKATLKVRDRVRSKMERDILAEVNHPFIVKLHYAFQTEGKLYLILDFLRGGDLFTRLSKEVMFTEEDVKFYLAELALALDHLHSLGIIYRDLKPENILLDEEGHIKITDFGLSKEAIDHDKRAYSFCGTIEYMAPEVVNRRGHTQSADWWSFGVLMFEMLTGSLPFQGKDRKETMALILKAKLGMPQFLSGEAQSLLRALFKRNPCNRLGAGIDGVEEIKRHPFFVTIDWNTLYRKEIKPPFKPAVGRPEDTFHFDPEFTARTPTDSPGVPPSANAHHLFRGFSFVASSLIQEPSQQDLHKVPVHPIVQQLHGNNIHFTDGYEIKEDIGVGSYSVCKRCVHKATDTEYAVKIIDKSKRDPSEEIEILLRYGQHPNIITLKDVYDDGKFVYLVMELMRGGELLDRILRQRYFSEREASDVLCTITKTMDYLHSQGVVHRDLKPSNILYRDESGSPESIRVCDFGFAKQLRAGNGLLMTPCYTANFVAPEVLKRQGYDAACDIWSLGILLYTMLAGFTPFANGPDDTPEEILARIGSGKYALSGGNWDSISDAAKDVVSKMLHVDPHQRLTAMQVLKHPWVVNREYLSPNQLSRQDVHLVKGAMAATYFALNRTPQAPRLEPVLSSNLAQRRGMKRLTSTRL
Sequence of PASK (human) (Q96RG2 whole entry, looked up): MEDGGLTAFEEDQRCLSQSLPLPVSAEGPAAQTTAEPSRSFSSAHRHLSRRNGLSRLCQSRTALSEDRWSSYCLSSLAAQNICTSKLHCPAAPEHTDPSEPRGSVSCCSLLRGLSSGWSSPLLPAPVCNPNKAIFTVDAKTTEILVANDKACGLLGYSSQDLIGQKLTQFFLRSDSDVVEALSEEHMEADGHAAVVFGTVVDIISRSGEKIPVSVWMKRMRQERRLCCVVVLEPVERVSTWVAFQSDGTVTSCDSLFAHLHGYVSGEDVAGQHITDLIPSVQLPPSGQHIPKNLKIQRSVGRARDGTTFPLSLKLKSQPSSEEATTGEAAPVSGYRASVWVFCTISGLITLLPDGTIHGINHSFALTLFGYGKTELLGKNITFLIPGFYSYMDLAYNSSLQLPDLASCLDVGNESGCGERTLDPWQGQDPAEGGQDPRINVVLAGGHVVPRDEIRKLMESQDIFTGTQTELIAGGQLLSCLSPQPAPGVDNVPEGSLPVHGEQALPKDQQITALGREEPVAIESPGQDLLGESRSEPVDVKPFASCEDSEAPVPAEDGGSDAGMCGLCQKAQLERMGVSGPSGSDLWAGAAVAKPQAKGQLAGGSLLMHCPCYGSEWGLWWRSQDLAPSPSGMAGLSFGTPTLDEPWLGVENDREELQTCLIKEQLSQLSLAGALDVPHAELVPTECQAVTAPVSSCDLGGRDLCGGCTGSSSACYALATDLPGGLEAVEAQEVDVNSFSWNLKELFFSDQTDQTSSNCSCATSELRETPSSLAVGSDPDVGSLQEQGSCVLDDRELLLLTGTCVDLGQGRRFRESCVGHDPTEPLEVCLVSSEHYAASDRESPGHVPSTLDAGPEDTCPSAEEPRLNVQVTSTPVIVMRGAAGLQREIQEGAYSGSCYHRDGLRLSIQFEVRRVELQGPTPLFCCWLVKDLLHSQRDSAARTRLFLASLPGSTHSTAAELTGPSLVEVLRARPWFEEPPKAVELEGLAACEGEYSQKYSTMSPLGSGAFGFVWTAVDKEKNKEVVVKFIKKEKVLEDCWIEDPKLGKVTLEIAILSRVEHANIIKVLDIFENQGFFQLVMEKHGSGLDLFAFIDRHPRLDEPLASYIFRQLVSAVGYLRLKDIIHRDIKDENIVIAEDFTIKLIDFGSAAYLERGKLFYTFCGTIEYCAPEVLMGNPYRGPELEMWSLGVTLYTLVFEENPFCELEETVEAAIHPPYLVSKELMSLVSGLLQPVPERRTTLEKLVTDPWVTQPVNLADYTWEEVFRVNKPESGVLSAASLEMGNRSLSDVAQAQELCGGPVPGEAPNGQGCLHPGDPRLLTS
Sequence of PRKX (human) (P51817 whole entry, looked up): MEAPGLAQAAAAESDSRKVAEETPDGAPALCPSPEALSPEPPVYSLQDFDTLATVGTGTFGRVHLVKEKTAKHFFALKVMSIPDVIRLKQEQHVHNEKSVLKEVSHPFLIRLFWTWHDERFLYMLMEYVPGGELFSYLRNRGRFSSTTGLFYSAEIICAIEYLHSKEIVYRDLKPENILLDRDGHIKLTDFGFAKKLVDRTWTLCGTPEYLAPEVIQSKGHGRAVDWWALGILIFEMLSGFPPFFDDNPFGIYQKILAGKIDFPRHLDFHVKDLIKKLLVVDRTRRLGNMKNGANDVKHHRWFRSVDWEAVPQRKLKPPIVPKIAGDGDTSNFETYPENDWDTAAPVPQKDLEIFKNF

residual activity [1]: 109% | residual activity [2]: 7% | residual activity [3]: 83% | residual activity [4]: 55% | residual activity (BTK (human)): 83% | residual activity (CAMK4 (human)): 98% | residual activity (CDC42BPA (human)): 107% | residual activity (CHEK1 (human)): 98% | residual activity [5]: 97% | residual activity (EPHA2 (human)): 80% | residual activity (EPHA5 (human)): 102% | residual activity (FER (human)): 56% | residual activity (FES (human)): 113% | residual activity (FLT3 (human)): 26% | residual activity (IGF1R (human)): 101% | residual activity (IRAK1 (human)): 83% | residual activity [6]: 95% | residual activity (MAP2K4 (mouse)): 87% | residual activity (MAP2K6 (human)): 117% | residual activity (MAPK10 (human)): 53% | residual activity (NLK (human)): 103% | residual activity (PAK6 (human)): 109% | residual activity (PASK (human)): 91% | residual activity (PIM1 (human)): 101% | residual activity (PRKCA (human)): 105% | residual activity (PRKCD (human)): 92% | residual activity (PRKCE (human)): 103% | residual activity [7]: 126% | residual activity (PRKCQ (human)): 100% | residual activity (PRKG1 (human)): 6% and -14% | residual activity (PRKX (human)): -12% | residual activity (RPS6KA2 KD1 KD2 (human)): 66% | residual activity (RPS6KA3 KD1 KD2 (human)): 76% | residual activity (RPS6KA4 KD1 KD2 (human)): 121% | residual activity [8]: 81% | residual activity (SGK3 (human)): 94% | residual activity (STK33 (human)): 90% | residual activity (WNK3 (human)): 78% | residual activity (ZAP70 (human)): 127%
Compound: CN(C)S(=O)(=O)Nc1ccc2ccc3ncc(-c4cnn(C)c4)cc3c(=O)c2c1
